Key:
[1] = target: T1, HiBit-BRG1 fusion protein in stable HeLa cell line expressing HiBit-BRG1 and LgBit (Homo sapiens, UniProt P51532); experiment: HiBiT-BRG1 cell-based degradation assay (Nano-Glo HiBiT, 24 h); conditions: HeLa HiBit-BRG1/LgBit cells; for Dmax: top dose 30 μM, read-out: BRG1 HiBit Degradation Maximum (%); for DC50: read-out: BRMG1 HiBit Degradation IC50
T1 construct: expressed in transfected cells
In short: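 Degradation calculated from NanoBiT luminescence relative to DMSO-treated cells (high) and cells given 2 μM known BRM/BRG1 degrader (low). HeLa cells stably expressing HiBiT-BRG1 plus LgBiT were exposed to compound for 24 h before lytic HiBiT detection.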

[2] = target: T2, HiBiT-BRM fusion protein in stable HeLa cell line (Homo sapiens, UniProt P51531); experiment: HiBiT-BRM cell-based degradation assay (Nano-Glo HiBiT Lytic Detection, 24 h); set-up: DC50: scale not given here; conditions: HeLa HiBiT-BRM cells; for DC50: read-out: BRM HiBit Degradation IC50; for BRM HiBit Degradation Maximum (%): top dose 30 μM
T2 construct: expressed in transfected cells
In short: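 HeLa stably expressing HiBiT-BRM; 24 h compound exposure, 10-pt 3-fold dilution from 30 μM final, duplicates. Lytic LgBiT complementation, luminescence. % degradation vs DMSO (HC) and 2 μM known BRM/BRG1 degrader (LC).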

T2 sequence (P51531 whole entry, the tested form may be a part): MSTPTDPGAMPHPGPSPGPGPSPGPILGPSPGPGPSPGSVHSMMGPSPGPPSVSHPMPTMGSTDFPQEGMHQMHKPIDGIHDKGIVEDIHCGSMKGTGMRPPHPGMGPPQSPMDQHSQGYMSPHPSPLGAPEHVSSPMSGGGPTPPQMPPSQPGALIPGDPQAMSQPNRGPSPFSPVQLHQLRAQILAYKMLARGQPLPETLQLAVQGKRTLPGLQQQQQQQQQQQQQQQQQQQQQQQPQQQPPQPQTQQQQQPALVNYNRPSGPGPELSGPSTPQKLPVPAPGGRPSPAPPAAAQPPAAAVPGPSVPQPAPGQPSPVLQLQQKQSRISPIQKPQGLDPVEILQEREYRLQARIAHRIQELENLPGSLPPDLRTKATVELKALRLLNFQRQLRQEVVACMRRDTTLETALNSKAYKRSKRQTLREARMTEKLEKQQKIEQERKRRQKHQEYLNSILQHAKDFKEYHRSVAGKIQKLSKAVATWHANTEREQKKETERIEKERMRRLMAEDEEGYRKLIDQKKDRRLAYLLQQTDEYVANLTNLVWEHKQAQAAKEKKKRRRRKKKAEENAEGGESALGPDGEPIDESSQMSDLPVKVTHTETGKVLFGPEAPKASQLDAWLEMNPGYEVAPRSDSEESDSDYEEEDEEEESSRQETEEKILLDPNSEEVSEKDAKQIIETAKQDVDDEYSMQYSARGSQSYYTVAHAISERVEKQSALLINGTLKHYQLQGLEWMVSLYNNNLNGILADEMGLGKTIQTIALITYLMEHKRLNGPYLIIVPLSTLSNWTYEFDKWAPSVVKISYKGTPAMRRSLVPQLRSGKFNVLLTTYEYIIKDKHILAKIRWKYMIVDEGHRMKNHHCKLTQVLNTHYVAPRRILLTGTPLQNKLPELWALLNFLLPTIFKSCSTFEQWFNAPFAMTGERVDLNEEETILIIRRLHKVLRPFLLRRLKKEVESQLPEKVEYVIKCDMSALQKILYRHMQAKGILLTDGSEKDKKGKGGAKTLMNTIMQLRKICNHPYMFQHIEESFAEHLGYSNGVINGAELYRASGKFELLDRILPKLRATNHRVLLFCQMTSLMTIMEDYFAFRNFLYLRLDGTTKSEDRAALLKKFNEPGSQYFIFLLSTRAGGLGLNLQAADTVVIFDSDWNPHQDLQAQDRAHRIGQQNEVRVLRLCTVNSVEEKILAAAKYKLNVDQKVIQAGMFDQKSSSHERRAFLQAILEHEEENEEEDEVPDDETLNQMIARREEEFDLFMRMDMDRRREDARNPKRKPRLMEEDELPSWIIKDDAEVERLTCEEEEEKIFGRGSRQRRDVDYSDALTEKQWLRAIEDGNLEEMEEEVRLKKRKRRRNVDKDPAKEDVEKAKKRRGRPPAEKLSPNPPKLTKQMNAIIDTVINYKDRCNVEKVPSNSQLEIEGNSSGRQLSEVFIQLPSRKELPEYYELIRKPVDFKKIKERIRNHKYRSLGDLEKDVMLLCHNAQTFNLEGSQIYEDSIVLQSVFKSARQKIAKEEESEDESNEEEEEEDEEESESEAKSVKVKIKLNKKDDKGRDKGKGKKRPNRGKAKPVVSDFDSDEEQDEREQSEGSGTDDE
T1 sequence (P51532 whole entry, the tested form may be a part): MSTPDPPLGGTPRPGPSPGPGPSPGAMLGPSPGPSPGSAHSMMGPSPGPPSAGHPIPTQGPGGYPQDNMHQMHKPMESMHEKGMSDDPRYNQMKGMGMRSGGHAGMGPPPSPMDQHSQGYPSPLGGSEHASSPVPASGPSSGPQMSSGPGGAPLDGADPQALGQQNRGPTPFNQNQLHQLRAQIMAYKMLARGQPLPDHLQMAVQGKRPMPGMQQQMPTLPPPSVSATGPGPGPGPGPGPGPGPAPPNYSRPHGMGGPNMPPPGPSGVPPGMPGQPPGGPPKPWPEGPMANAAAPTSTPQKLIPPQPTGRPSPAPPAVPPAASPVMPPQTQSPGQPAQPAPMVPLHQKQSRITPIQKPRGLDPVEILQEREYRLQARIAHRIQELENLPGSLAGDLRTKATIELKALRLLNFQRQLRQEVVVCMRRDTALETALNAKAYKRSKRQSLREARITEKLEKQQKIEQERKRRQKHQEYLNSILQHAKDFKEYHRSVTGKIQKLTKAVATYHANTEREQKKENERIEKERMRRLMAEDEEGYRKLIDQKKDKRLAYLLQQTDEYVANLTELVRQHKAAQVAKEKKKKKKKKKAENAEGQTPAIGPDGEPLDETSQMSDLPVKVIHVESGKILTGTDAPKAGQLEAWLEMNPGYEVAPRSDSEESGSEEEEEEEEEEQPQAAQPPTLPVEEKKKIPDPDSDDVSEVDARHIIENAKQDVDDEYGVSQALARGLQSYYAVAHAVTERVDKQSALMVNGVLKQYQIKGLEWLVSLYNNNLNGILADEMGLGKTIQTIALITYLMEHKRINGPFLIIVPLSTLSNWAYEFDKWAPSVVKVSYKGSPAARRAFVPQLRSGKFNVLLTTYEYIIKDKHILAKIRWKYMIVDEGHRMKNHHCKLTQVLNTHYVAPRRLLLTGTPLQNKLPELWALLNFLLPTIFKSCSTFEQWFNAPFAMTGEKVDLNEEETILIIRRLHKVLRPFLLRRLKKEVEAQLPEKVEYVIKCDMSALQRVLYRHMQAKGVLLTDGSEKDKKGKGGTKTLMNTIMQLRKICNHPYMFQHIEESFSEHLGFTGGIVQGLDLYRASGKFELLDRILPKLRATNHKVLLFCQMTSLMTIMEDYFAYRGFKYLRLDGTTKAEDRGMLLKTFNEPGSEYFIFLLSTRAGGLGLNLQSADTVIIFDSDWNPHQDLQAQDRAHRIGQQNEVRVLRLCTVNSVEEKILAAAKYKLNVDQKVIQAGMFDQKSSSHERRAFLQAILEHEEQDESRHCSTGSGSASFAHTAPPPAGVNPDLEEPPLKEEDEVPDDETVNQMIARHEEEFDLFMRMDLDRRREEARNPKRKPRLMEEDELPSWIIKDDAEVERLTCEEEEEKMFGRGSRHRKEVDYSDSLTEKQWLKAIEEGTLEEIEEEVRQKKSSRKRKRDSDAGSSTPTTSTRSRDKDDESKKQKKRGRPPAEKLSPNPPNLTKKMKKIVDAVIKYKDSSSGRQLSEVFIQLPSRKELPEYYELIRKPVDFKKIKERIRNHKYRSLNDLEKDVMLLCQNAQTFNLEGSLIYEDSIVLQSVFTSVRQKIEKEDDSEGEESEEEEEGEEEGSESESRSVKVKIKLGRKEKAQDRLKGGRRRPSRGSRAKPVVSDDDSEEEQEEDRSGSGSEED

Structure (SMILES)	Dmax [1] [%]	DC50 [2] [nM]	BRM HiBit Degradation Maximum (%) [2]	DC50 [1] [nM]
Cc1ncsc1-c1ccc([C@H](C)NC(=O)[C@@H]2C[C@@H](O)CN2C(=O)[C@@H](c2cc(N3CCC4(CC3)CCN(c3ccc5cc(-c6ccccc6O)nnc5c3)C(=O)C4)no2)C(C)C)cc1 [Compound 103, (2S,4R)-4-hydroxy-1-((R)-2-(3-(9-(3-(2-hydroxyphenyl)cinnolin-7-yl)-8-oxo-3,9-diazaspiro[5.5]undecan-3-yl)isoxazol-5-yl)-3-methylbutanoyl)-N-((S)-1-(4-(4-methylthiazol-5-yl)phenyl)ethyl)pyrrolidine-2-carboxamide]	< 50	< 10	A (“A” indicates maximum degradation ≥75%)	
Cc1ncsc1-c1ccc([C@H](C)NC(=O)[C@@H]2C[C@@H](O)CN2C(=O)[C@@H](c2cc(N3CCC4(CC3)CCN(c3ccc5cc(-c6ccccc6O)nnc5c3)C4=O)no2)C(C)C)cc1 [Compound 104, (2S,4R)-4-hydroxy-1-((R)-2-(3-(2-(3-(2-hydroxyphenyl)cinnolin-7-yl)-1-oxo-2,8-diazaspiro[4.5]decan-8-yl)isoxazol-5-yl)-3-methylbutanoyl)-N-((S)-1-(4-(4-methylthiazol-5-yl)phenyl)ethyl)pyrrolidine-2-carboxamide]	< 50	< 10	A (“A” indicates maximum degradation ≥75%)	
Cc1ncsc1-c1ccc([C@H](C)NC(=O)[C@@H]2C[C@@H](O)CN2C(=O)[C@@H](c2cc(N3CC4(CCN(c5ccc6cc(-c7ccccc7O)nnc6c5)CC4(F)F)C3)no2)C(C)C)cc1 [Compound 105, (2S,4R)-1-((R)-2-(3-(5,5-difluoro-7-(3-(2-hydroxyphenyl)cinnolin-7-yl)-2,7-diazaspiro[3.5]nonan-2-yl)isoxazol-5-yl)-3-methylbutanoyl)-4-hydroxy-N-((S)-1-(4-(4-methylthiazol-5-yl)phenyl)ethyl)pyrrolidine-2-carboxamide]	> 75	< 10	A (“A” indicates maximum degradation ≥75%)	< 10
Cc1ncsc1-c1ccc([C@H](C)NC(=O)[C@@H]2C[C@@H](O)CN2C(=O)[C@@H](c2cc(N3CCC4(CCN(c5ccc6cc(-c7ccccc7O)nnc6c5)CC4)CC3)no2)C(C)C)cc1 [Compound 106, (2S,4R)-4-hydroxy-1-((R)-2-(3-(9-(3-(2-hydroxyphenyl)cinnolin-7-yl)-3,9-diazaspiro [5.5]undecan-3-yl)isoxazol-5-yl)-3-methylbutanoyl)-N-((S)-1-(4-(4-methylthiazol-5-yl)phenyl)ethyl)pyrrolidine-2-carboxamide]	> 75	< 10	A (“A” indicates maximum degradation ≥75%)	< 10
Cc1ncsc1-c1ccc([C@H](C)NC(=O)[C@@H]2C[C@@H](O)CN2C(=O)[C@@H](c2cc(N3CCN([C@@H]4CCN(c5ccc6cc(-c7ccccc7O)nnc6c5)CC4(F)F)CC3)no2)C(C)C)cc1 [Compound 107, (2S,4R)-1-((R)-2-(3-(4-((R)-3,3-difluoro-1-(3-(2-hydroxyphenyl)cinnolin-7-yl)piperidin-4-yl)piperazin-1-yl)isoxazol-5-yl)-3-methylbutanoyl)-4-hydroxy-N-((S)-1-(4-(4-methylthiazol-5-yl)phenyl)ethyl)pyrrolidine-2-carboxamide]	> 75	< 10	A (“A” indicates maximum degradation ≥75%)	< 10
Cc1ncsc1-c1ccc([C@H](C)NC(=O)[C@@H]2C[C@@H](O)CN2C(=O)C(c2cc(N3CCC4(CN(c5ccc6cc(-c7ccccc7O)nnc6c5)C4)C(F)(F)C3)no2)C(C)C)cc1 (stereo partly drawn) [Compound 108, (2S,4R)-1-(2-(3-(5,5-difluoro-2-(3-(2-hydroxyphenyl)cinnolin-7-yl)-2,7-diazaspiro [3.5]nonan-7-yl)isoxazol-5-yl)-3-methylbutanoyl)-4-hydroxy-N-((S)-1-(4-(4-methylthiazol-5-yl)phenyl)ethyl)pyrrolidine-2-carboxamide]	> 75	< 10	A (“A” indicates maximum degradation ≥75%)	> 10
CC(C)[C@@H](C(=O)N1C[C@H](O)C[C@H]1C(=O)N[C@@H](C)c1ccc(Br)cc1)c1cc(N2CC3(CN(c4ccc5cc(-c6ccccc6O)nnc5c4)C3)C2)no1 [Compound 109, (2S,4R)-N-((S)-1-(4-bromophenyl)ethyl)-4-hydroxy-1-((R)-2-(3-(6-(3-(2-hydroxyphenyl)cinnolin-7-yl)-2,6-diazaspiro[3.3]heptan-2-yl)isoxazol-5-yl)-3-methylbutanoyl)pyrrolidine-2-carboxamide]	< 50	< 10	A (“A” indicates maximum degradation ≥75%)	
CC(C)[C@@H](C(=O)N1C[C@H](O)C[C@H]1C(=O)N[C@@H](C)c1ccccc1F)c1cc(N2CC3(CN(c4ccc5cc(-c6ccccc6O)nnc5c4)C3)C2)no1 [Compound 110, (2S,4R)-N-((S)-1-(2-fluorophenyl)ethyl)-4-hydroxy-1-((R)-2-(3-(6-(3-(2-hydroxyphenyl)cinnolin-7-yl)-2,6-diazaspiro[3.3]heptan-2-yl)isoxazol-5-yl)-3-methylbutanoyl)pyrrolidine-2-carboxamide]	< 50	< 10	A (“A” indicates maximum degradation ≥75%)	
CC(C)[C@@H](C(=O)N1C[C@H](O)C[C@H]1C(=O)NCc1ccccc1)c1cc(N2CC3(CN(c4ccc5cc(-c6ccccc6O)nnc5c4)C3)C2)no1 [Compound 111, (2S,4R)-N-benzyl-4-hydroxy-1-((R)-2-(3-(6-(3-(2-hydroxyphenyl)cinnolin-7-yl)-2,6-diazaspiro[3.3]heptan-2-yl)isoxazol-5-yl)-3-methylbutanoyl)pyrrolidine-2-carboxamide]	< 50	< 10	A (“A” indicates maximum degradation ≥75%)	
CC(C)C(C(=O)N1C[C@H](O)C[C@H]1C(=O)N[C@@H](C)c1ccc(C#N)cc1)c1cc(N2CC3(CN(c4ccc5cc(-c6ccccc6O)nnc5c4)C3)C2)no1 (stereo partly drawn) [Compound 112, (2S,4R)-N-((S)-1-(4-cyanophenyl)ethyl)-4-hydroxy-1-(2-(3-(6-(3-(2-hydroxyphenyl)cinnolin-7-yl)-2,6-diazaspiro[3.3]heptan-2-yl)isoxazol-5-yl)-3-methylbutanoyl)pyrrolidine-2-carboxamide]	> 50	< 10	A (“A” indicates maximum degradation ≥75%)	> 10
CC(C)C(C(=O)N1C[C@H](O)C[C@H]1C(=O)N[C@@H](C)c1ccc(Cl)cc1)c1cc(N2CC3(CN(c4ccc5cc(-c6ccccc6O)nnc5c4)C3)C2)no1 (stereo partly drawn) [Compound 113, (2S,4R)-N-((S)-1-(4-chlorophenyl)ethyl)-4-hydroxy-1-(2-(3-(6-(3-(2-hydroxyphenyl)cinnolin-7-yl)-2,6-diazaspiro[3.3]heptan-2-yl)isoxazol-5-yl)-3-methylbutanoyl)pyrrolidine-2-carboxamide]	< 50	< 10	A (“A” indicates maximum degradation ≥75%)	

From patent US20260193264A1, “BENZOYPARAZINE PYRAZINES AND THEIR USES” (FOGHORN THERAPEUTICS INC., priority 2022, published 2026)
